The values below are quoted from earlier work in article PMC11696226 (Nature Communications, 2025).

For this data set, the system named is metastatic TNBC / breast cancer.

Like-named read-outs stand apart in the source and are kept apart here.

Consider SG: antibody-drug conjugate, for which the “median OS” value (ASCENT, metastatic TNBC) is reported as 12.1 months. Under “ASCENT, metastatic TNBC, ≥2 lines of chemotherapy”, the “median PFS” value is given as 5.6 months. Further, for the setting “ASCENT, p < 0.001”, the “HR for OS vs conventional chemotherapy” value is recorded as 0.48 and the “HR for PFS vs conventional chemotherapy” value is given as 0.41.

Turning to `C=C1C[C@@H]2CC[C@@]34C[C@H]5O[C@H]6[C@@H](O3)[C@H]3O[C@H](CC[C@@H]3O[C@H]6[C@H]5O4)CC(=O)C[C@@H]3[C@@H](OC)[C@@H](C[C@H](O)CN)O[C@H]3C[C@H]3O[C@@H](CC[C@@H]1O2)C[C@@H](C)C3=C` [eribulin], the “median OS” value (TNBC, pooled EMBRACE and Study 301) is 12.4 month. Further, for the setting “TNBC, pooled EMBRACE and Study 301, 199 patients”, the “median PFS” value is reported as 2.8 month.
